Measured values published in ChEMBL document CHEMBL6083262, “Stereorandomized Oncocins with Preserved Ribosome Binding and Antibacterial Activity” (J Med Chem, 2024).
Values after ≈ are worked out from the molar mass of the structure shown. Non-standard residues stand in square brackets, D forms with d. Residues, ends and D or L forms follow the SMILES beside them. Orn = NCCC[C@H](N)C(=O)O

Tests used:
Pseudomonas aeruginosa [1] = assay: Antibacterial activity against multidrug-resistant Pseudomonas aeruginosa PA14 incubated for 16 to 20 hrs in full muller hinton medium by broth microdilution method; format: functional; conditions: time 16-20 hrs
Enterobacter cloacae [2] = assay: Antibacterial activity against multidrug-resistant Enterobacter cloacae incubated for 16 to 20 hrs in full muller hinton medium by broth microdilution method; format: functional; conditions: time 16-20 hrs
Staphylococcus aureus [3] = assay: Antimicrobial activity against methicillin-resistant Staphylococcus aureus COL incubated for 16 to 20 hrs in full muller hinton medium by broth microdilution method; format: functional; conditions: time 16-20 hrs
Klebsiella pneumoniae [4] = assay: Antimicrobial activity against Klebsiella pneumoniae NCTC 418 incubated for 16 to 20 hrs in full muller hinton medium by broth microdilution method; format: functional; conditions: time 16-20 hrs
Pseudomonas aeruginosa [5] = assay: Antibacterial activity against multidrug-resistant Pseudomonas aeruginosa PA14 4.18 harboring pmrB mutant incubated for 16 to 20 hrs in 12.5 % muller hinton medium by broth microdilution method; format: functional; conditions: time 16-20 hrs
Pseudomonas aeruginosa [6] = assay: Antibacterial activity against multidrug-resistant Pseudomonas aeruginosa clinical isolate ZEM9A incubated for 16 to 20 hrs in 12.5 % muller hinton medium by broth microdilution method; format: functional; conditions: time 16-20 hrs
Pseudomonas aeruginosa [7] = assay: Antibacterial activity against multidrug-resistant Pseudomonas aeruginosa clinical isolate ZEM-1A incubated for 16 to 20 hrs in 12.5 % muller hinton medium by broth microdilution method; format: functional; conditions: time 16-20 hrs
Escherichia coli [8] = assay: Antimicrobial activity against Escherichia coli W3110 incubated for 16 to 20 hrs in 12.5 % muller hinton medium by broth microdilution method; format: functional; conditions: time 16-20 hrs
Pseudomonas aeruginosa [9] = assay: Antibacterial activity against multidrug-resistant Pseudomonas aeruginosa PA14 2P4 harboring pmrB mutant incubated for 16 to 20 hrs in full muller hinton medium by broth microdilution method; format: functional; conditions: time 16-20 hrs
Klebsiella pneumoniae [10] = assay: Antibacterial activity against multidrug-resistant Klebsiella pneumoniae clinical isolate OXA-48 incubated for 16 to 20 hrs in 12.5 % muller hinton medium by broth microdilution method; format: functional; conditions: time 16-20 hrs
Pseudomonas aeruginosa [11] = assay: Antibacterial activity against multidrug-resistant Pseudomonas aeruginosa PA14 incubated for 16 to 20 hrs in 12.5 % muller hinton medium by broth microdilution method; format: functional; conditions: time 16-20 hrs
Klebsiella pneumoniae [12] = assay: Antimicrobial activity against Klebsiella pneumoniae NCTC 418 incubated for 16 to 20 hrs in 12.5 % muller hinton medium by broth microdilution method; format: functional; conditions: time 16-20 hrs
Acinetobacter baumannii [13] = assay: Antimicrobial activity against Acinetobacter baumannii ATCC 19606 incubated for 16 to 20 hrs in full muller hinton medium by broth microdilution method; format: functional; conditions: time 16-20 hrs
Pseudomonas aeruginosa [14] = assay: Antibacterial activity against multidrug-resistant Pseudomonas aeruginosa PA14 4.13 harboring phoQ mutant incubated for 16 to 20 hrs in full muller hinton medium by broth microdilution method; format: functional; conditions: time 16-20 hrs
Pseudomonas aeruginosa [15] = assay: Antibacterial activity against multidrug-resistant Pseudomonas aeruginosa PA14 4.18 harboring pmrB mutant incubated for 16 to 20 hrs in full muller hinton medium by broth microdilution method; format: functional; conditions: time 16-20 hrs
Staphylococcus aureus [16] = assay: Antimicrobial activity against methicillin-resistant Staphylococcus aureus COL incubated for 16 to 20 hrs in 12.5 % muller hinton medium by broth microdilution method; format: functional; conditions: time 16-20 hrs
Pseudomonas aeruginosa [17] = assay: Antibacterial activity against multidrug-resistant Pseudomonas aeruginosa clinical isolate ZEM-1A incubated for 16 to 20 hrs in full muller hinton medium by broth microdilution method; format: functional; conditions: time 16-20 hrs
Pseudomonas aeruginosa [18] = assay: Antibacterial activity against multidrug-resistant Pseudomonas aeruginosa clinical isolate ZEM9A incubated for 16 to 20 hrs in full muller hinton medium by broth microdilution method; format: functional; conditions: time 16-20 hrs
Pseudomonas aeruginosa [19] = assay: Antimicrobial activity against Pseudomonas aeruginosa PAO1 incubated for 16 to 20 hrs in full muller hinton medium by broth microdilution method; format: functional; conditions: time 16-20 hrs
Pseudomonas aeruginosa [20] = assay: Antibacterial activity against multidrug-resistant Pseudomonas aeruginosa PA14 4.13 harboring phoQ mutant incubated for 16 to 20 hrs in 12.5 % muller hinton medium by broth microdilution method; format: functional; conditions: time 16-20 hrs
Acinetobacter baumannii [21] = assay: Antimicrobial activity against Acinetobacter baumannii ATCC 19606 incubated for 16 to 20 hrs in 12.5 % muller hinton medium by broth microdilution method; format: functional; conditions: time 16-20 hrs
Enterobacter cloacae [22] = assay: Antibacterial activity against multidrug-resistant Enterobacter cloacae incubated for 16 to 20 hrs in 12.5 % muller hinton medium by broth microdilution method; format: functional; conditions: time 16-20 hrs
Pseudomonas aeruginosa [23] = assay: Antibacterial activity against multidrug-resistant Pseudomonas aeruginosa PA14 2P4 harboring pmrB mutant incubated for 16 to 20 hrs in 12.5 % muller hinton medium by broth microdilution method; format: functional; conditions: time 16-20 hrs
Klebsiella pneumoniae [24] = assay: Antibacterial activity against multidrug-resistant Klebsiella pneumoniae clinical isolate OXA-48 incubated for 16 to 20 hrs in full muller hinton medium by broth microdilution method; format: functional; conditions: time 16-20 hrs
Escherichia coli [25] = assay: Antimicrobial activity against Escherichia coli W3110 incubated for 16 to 20 hrs in full muller hinton medium by broth microdilution method; format: functional; conditions: time 16-20 hrs
Pseudomonas aeruginosa [26] = assay: Antimicrobial activity against Pseudomonas aeruginosa PAO1 incubated for 16 to 20 hrs in 12.5 % muller hinton medium by broth microdilution method; format: functional; conditions: time 16-20 hrs
[27] = Hemolytic activity in human RBC incubated for 4 hrs; format: toxicity, cell-based; conditions: erythrocyte

With `CC[C@H](C)[C@H](NC(=O)[C@H](CCCN)NC(=O)[C@H](CCCNC(=N)N)NC(=O)[C@@H]1CCCN1C(=O)[C@@H]1CCCN1C(=O)[C@H](CCCNC(=N)N)NC(=O)[C@@H]1CCCN1C(=O)[C@H](CCCNC(=N)N)NC(=O)[C@@H]1CCCN1C(=O)[C@H](CC(C)C)NC(=O)[C@H](Cc1ccc(O)cc1)NC(=O)[C@@H]1CCCN1C(=O)[C@@H]1CCCN1C(=O)[C@H](CCCCN)NC(=O)[C@H](CC(=O)O)NC(=O)[C@@H](N)C(C)C)C(=O)N[C@@H](Cc1ccc(O)cc1)C(=O)N[C@@H](CC(N)=O)C(=O)N[C@@H](CCCN)C(N)=O` (H-VDKPPYLPRPRPPR[Orn]IYN[Orn]-NH2) the MIC (Pseudomonas aeruginosa [1]) was over 32 µg/mL, the MIC (Enterobacter cloacae [2]) was 32 µg/mL (≈ 13.9 µM) and the MIC (Staphylococcus aureus [3]) was over 64 µg/mL. For the same molecule, the MIC (Klebsiella pneumoniae [4]) was 8 µg/mL (≈ 3.47 µM), the MIC (Pseudomonas aeruginosa [5]) was 32 µg/mL (≈ 13.9 µM) and the MIC (Pseudomonas aeruginosa [6]) was 32 µg/mL (≈ 13.9 µM). It also gave an MIC (Pseudomonas aeruginosa [7]) of 16 µg/mL (≈ 6.94 µM), an MIC (Escherichia coli [8]) of 2 µg/mL (≈ 0.867 µM) and an MIC (Pseudomonas aeruginosa [9]) of over 64 µg/mL. The MIC (Klebsiella pneumoniae [10]) was 2 µg/mL (≈ 0.867 µM), the MIC (Pseudomonas aeruginosa [11]) was 32 µg/mL (≈ 13.9 µM) and the MIC (Klebsiella pneumoniae [12]) was 4 µg/mL (≈ 1.73 µM). It also gave an MIC (Acinetobacter baumannii [13]) of 64 µg/mL (≈ 27.8 µM), an MIC (Pseudomonas aeruginosa [14]) of over 32 µg/mL and an MIC (Pseudomonas aeruginosa [15]) of over 32 µg/mL. It also gave an MIC (Staphylococcus aureus [16]) of over 64 µg/mL, an MIC (Pseudomonas aeruginosa [17]) of over 64 µg/mL and an MIC (Pseudomonas aeruginosa [18]) of over 64 µg/mL. For the same molecule, the MIC (Pseudomonas aeruginosa [19]) was over 64 µg/mL, the MIC (Pseudomonas aeruginosa [20]) was 32 µg/mL (≈ 13.9 µM) and the MIC (Acinetobacter baumannii [21]) was 8 µg/mL (≈ 3.47 µM). For the same molecule, the MIC (Enterobacter cloacae [22]) was 1 µg/mL (≈ 0.434 µM), the MIC (Pseudomonas aeruginosa [23]) was 16 µg/mL (≈ 6.94 µM) and the MIC (Klebsiella pneumoniae [24]) was 64 µg/mL (≈ 27.8 µM). The MIC (Escherichia coli [25]) was 8 µg/mL (≈ 3.47 µM), the MIC (Pseudomonas aeruginosa [26]) was 16 µg/mL (≈ 6.94 µM) and the MHC [27] was over 1000 µg/mL.
